Assay results taken from patent US8173674B2, “Sulfonyl-phenyl-2H-[1,2,4]oxadiazol-5-one derivatives, processes for their preparation and their use as pharmaceuticals” (Sanofi-Aventis, priority 2006, dated 2012).
Read-outs that look alike come from different tables or passages of the source.

How the values were obtained:
human PPARalpha = target: T1, human PPARalpha (Homo sapiens, UniProt Q07869); assay: cellular PPARalpha assay (luciferase reporter, stably transfected HEK cell line); assay type: cell-based
T1 construct: amino acids S167-Y468; expressed in transfected cells
T1 sequence (Q07869 167-468): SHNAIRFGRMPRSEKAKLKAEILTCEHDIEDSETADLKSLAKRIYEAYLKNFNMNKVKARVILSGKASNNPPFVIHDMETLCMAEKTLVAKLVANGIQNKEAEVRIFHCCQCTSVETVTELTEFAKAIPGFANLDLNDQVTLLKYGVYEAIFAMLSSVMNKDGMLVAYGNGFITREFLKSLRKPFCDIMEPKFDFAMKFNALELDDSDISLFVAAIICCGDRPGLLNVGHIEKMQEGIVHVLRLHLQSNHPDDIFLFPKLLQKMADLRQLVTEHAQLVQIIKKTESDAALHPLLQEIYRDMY
Protocol: (§1) The potency of substances which bind to human PPARalpha and activate it in an agonistic manner is analyzed using a stably transfected HEK cell line (HEK=human embryo kidney) which is referred to here as PPARalpha reporter cell line. It contains two genetic elements, a luciferase reporter element (pdeltaM-GAL4-Luc-Zeo) and a PPARalpha fusion protein (GR-GAL4-humanPPARalpha-LBD) which mediates expression of the luciferase reporter element depending on a PPARalpha ligand. The stably and constitutively expressed fusion protein GR-GAL4-humanPPARalpha-LBD binds in the cell nucleus of the PPARalpha reporter cell line via the GAL4 protein portion to the GAL4 DNA binding motifs 5′-upstream of the luciferase reporter element which is stably integrated in the genome of the cell line. There is only weak expression of the luciferase reporter gene in the absence of a PPARalpha ligand if fatty acid-depleted fetal calf serum (cs-FCS) is used in the assay. PPARalpha ligands bind and activate the PPARalpha fusion protein and thereby stimulate the expression of the luciferase reporter gene. The luciferase which is formed can be detected by means of chemiluminescence via an appropriate substrate.
The PPARalpha reporter cell line was prepared in two stages. Firstly, the luciferase reporter element was constructed and stably transfected into HEK cells. For this purpose, five binding sites of the yeast transcription factor GAL4 (Accession # AF264724) were cloned in 5′-upstream of a 68 bp-long minimal MMTV promoter (Accession # V01175). The minimal MMTV promoter section contains a CCAAT box and a TATA element in order to enable efficient transcription by RNA polymerase II. The cloning and sequencing of the GAL4-MMTV construct took place in analogy to the description of Sambrook J. et. al. (Molecular cloning, Cold Spring Harbor Laboratory Press, 1989). Then the complete Photinus pyralis gene (Accession # M15077) was cloned in 3′-downstream of the GAL4-MMTV element. After sequencing, the luciferase reporter element consisting of five GAL4 binding sites, MMTV promoter and luciferase gene was recloned into a plasmid which confers zeocin resistance in order to obtain the plasmid pdeltaM-GAL4-Luc-Zeo. This vector was transfected into HEK cells in accordance with the statements in Ausubel, F. M. et al. (Current protocols in molecular biology, Vol. 1-3, John Wiley & Sons, Inc., 1995).
In a second step, the PPARalpha fusion protein (GR-GAL4-humanPPARalpha-LBD was introduced into the stable cell clone described. For this purpose, initially the cDNA coding for the N-terminal 76 amino acids of the glucocorticoid receptor (Accession # P04150) was linked to the cDNA section coding for amino acids 1-147 of the yeast transcription factor GAL4 (Accession # P04386). The cDNA of the ligand-binding domain of the human PPARalpha receptor (amino acids S167-Y468; Accession # S74349) was cloned in at the 3′-end of this GR-GAL4 construct. The fusion construct prepared in this way (GR-GAL4-humanPPARalpha-LBD) was recloned into the plasmid pcDNA3 (Invitrogen) in order to enable constitutive expression therein by the cytomegalovirus promoter. This plasmid was linearized with a restriction endonuclease and stably transfected into the previously described cell clone containing the luciferase reporter element. The finished PPARalpha reporter cell line which contains a luciferase reporter element and constitutively expresses the PPARalpha fusion protein (GR-GAL4-human PPARalpha-LBD) was isolated by selection with zeocin (0.5 mg/ml) and G418 (0.5 mg/ml).
The activity of PPARalpha agonists is determined in a 3-day assay which is described below: […]

human PPARdelta = target: T2, human PPARdelta (Homo sapiens, UniProt Q03181); assay: cellular PPARdelta assay (luciferase reporter, stably transfected HEK cell line); assay type: cell-based; details: GR-GAL4-humanPPARdelta-LBD
T2 construct: amino acids S139-Y441; expressed in transfected cells
T2 sequence (Q03181 139-441): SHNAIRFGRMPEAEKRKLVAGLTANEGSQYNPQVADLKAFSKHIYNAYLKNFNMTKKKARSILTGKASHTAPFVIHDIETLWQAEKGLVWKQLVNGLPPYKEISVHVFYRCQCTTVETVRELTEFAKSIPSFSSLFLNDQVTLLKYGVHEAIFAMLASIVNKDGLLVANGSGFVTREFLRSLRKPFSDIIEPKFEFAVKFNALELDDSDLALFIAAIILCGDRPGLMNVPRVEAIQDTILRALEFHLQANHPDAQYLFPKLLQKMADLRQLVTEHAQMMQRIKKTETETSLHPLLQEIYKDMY
Protocol: as §1, with “PPARdelta” for “PPARalpha”, “In analogy to the assay described for PPARalpha, the PPARdelta reporter cell line also” for “It”, “(GR-GAL4-humanPPARdelta-LBD)” for “(GR-GAL4-humanPPARalpha-LBD)”, “GR-GAL4-humanPPARdelta-LBD” for “GR-GAL4-humanPPARalpha-LBD”, “little” for “weak”, “stimulate” for “stimulate the”
The production of the stable PPARdelta reporter cell line is based on a stable HEK-cell clone which was stably transfected with a luciferase reporter element. This step was already described above in the section “construction of the PPARalpha reporter cell line”. […]
The activity of PPARdelta agonists is determined in a 3-day assay in exact analogy to the procedure already described for the PPARalpha reporter cell line except that the PPARdelta reporter cell line and a specific PPARdelta agonist was used as a standard to control test efficacy.

PPARdelta [1] = details: diabetic animal model; cited from earlier work
PPARdelta [2] = target: T3, PPARdelta (Macaca mulatta, UniProt I0FFS1); details: obese, insulin resistant rhesus monkeys; cited from earlier work
T3 sequence (I0FFS1 1-441): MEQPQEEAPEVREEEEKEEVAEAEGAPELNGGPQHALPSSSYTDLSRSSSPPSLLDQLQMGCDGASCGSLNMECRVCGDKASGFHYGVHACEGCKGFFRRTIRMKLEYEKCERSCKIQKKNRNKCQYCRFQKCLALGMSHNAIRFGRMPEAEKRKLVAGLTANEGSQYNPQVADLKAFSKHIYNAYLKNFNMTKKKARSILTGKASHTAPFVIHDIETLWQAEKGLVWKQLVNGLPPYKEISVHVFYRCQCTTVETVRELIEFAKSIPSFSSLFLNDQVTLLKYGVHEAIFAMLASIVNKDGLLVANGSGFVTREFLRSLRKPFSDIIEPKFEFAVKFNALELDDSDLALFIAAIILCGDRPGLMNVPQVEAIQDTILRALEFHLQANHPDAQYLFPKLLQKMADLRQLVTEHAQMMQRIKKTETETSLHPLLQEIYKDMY

PPARdelta/PPARalpha [3] = details: rhesus and cynomolgus monkeys; cited from earlier work
PPARdelta/PPARalpha [4] = details: two weeks clinical trials, healthy volunteers; cited from earlier work
[5] = read-out: PPARalpha EC50 values (range given)
[6] = GR-GAL4-humanPPARalpha-LBD, read-out: PPARalpha EC50

Row | EC50 (human PPARalpha; [5]) | EC50 (human PPARalpha; [6]) | EC50 (human PPARdelta) | SMILES | further results
1 | 1000 to 5000 nM |  |  | O=c1[nH]c(-c2ccc(S(=O)(=O)N3CCc4cc(-c5ccc(C(F)(F)F)cc5)ccc43)cc2)no1 [Example 1, 3-{4-[5-(4-Trifluoromethyl-phenyl)-2,3-dihydro-indole-1-sulfonyl]-phenyl}-4H-[1,2,4]oxadiazol-5-one] | 
2 | 1000 to 5000 nM | 3520 nM | 15 nM | CC1(C)CN(S(=O)(=O)c2ccc(-c3nc(=O)o[nH]3)cc2)c2ccc(-c3ccc(C(F)(F)F)cc3)cc21 [Example 2, 3-{4-[3,3-Dimethyl-5-(4-trifluoromethyl-phenyl)-2,3-dihydro-indole-1-sulfonyl]-phenyl}-2H-[1,2,4]oxadiazol-5-one] | 
3 | 1000 to 5000 nM | 1110 nM | 3 nM | O=c1[nH]c(-c2ccc(S(=O)(=O)N3CCc4cc(-c5ccc(C(F)(F)F)cc5)ccc43)cc2Cl)no1 [Example 3, 3-{2-Chloro-4-[5-(4-trifluoromethyl-phenyl)-2,3-dihydro-indole-1-sulfonyl]-phenyl}-4H-[1,2,4]oxadiazol-5-one] | 
4 | 1000 to 5000 nM |  |  | CC1(C)CN(S(=O)(=O)c2ccc(-c3nc(=O)o[nH]3)c(Cl)c2)c2ccc(-c3ccc(C(F)(F)F)cc3)cc21 [Example 4, 3-{2-Chloro-4-[3,3-dimethyl-5-(4-trifluoromethyl-phenyl)-2,3-dihydro-indole-1-sulfonyl]-phenyl}-2H-[1,2,4]oxadiazol-5-one] | 
5 | 1000 to 5000 nM | 1640 nM | 35 nM | O=c1nc(-c2ccc(S(=O)(=O)N3CCc4ccc(-c5ccc(C(F)(F)F)cc5)cc4C3)cc2Cl)[nH]o1 [Example 5, 3-{2-Chloro-4-[7-(4-trifluoromethyl-phenyl)-3,4-dihydro-1H-isoquinoline-2-sulfonyl]-phenyl}-2H-[1,2,4]oxadiazol-5-one] | 
6 |  |  |  | CCCc1c(OCCCOc2ccc(OCC(=O)O)cc2)ccc(C(C)=O)c1O [Example L-165041] | plasma cholesterol (PPARdelta [1]): raises
7 |  |  |  | Cc1cc(SCc2sc(-c3ccc(C(F)(F)F)cc3)nc2C)ccc1OCC(=O)O [GW501516] | HDL-cholesterol (PPARdelta [2]): raises; insulin levels (PPARdelta [2]): decreases; plasma LDL-cholesterol (PPARdelta [2]): decreases; triglycerides (PPARdelta [2]): decreases
8 |  |  |  | CCCc1c(OCCCSc2nnc(SCC(=O)O)s2)ccc(C(C)=O)c1O [YM-16638] | plasma lipids (PPARdelta/PPARalpha [3]): significantly lowers; plasma lipids (PPARdelta/PPARalpha [4]): acts in a similar manner
